Source: the supplement of paper PMC10307832

Columns and labels:
Experiment in all cases: relative viability (nuclei count vs DMSO), 5 days (fraction); higher = more cells survive
Doxorubicin + OSI-027 = compound: COc1cccc2c1C(=O)c1c(O)c3c(c(O)c1C2=O)C[C@@](O)(C(=O)CO)C[C@@H]3O[C@H]1C[C@H](N)[C@H](O)[C@H](C)O1 [Doxorubicin] + COc1cccc2cc(-c3nc([C@H]4CC[C@H](C(=O)O)CC4)n4ncnc(N)c34)[nH]c12 [OSI-027] (partner 0.5 µM)
How it was run: (§1)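 Cells from lung cancer lines were seeded into 1536-well plates and, one day later, dosed by pin tool. Treatments were either a single drug or a fixed dose of an anchor drug with five library-drug doses (not always all listed) in √10 steps. After 5 days, nuclei were stained in a one-step fixation (final 0.05% Triton X-100, 1% formaldehyde, 1 ug/ml Hoechst) and counted on 4× images, and relative viability is the treated-to-vehicle nuclei ratio, as the median of duplicate plates.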

Doxorubicin + AZD7762 = compound: COc1cccc2c1C(=O)c1c(O)c3c(c(O)c1C2=O)C[C@@](O)(C(=O)CO)C[C@@H]3O[C@H]1C[C@H](N)[C@H](O)[C@H](C)O1 [Doxorubicin] + NC(=O)Nc1cc(-c2cccc(F)c2)sc1C(=O)N[C@H]1CCCNC1 [AZD7762] (partner 0.2 µM)
How it was run: as §1

BAY61-3606 + Pictilisib = compound: COC1=C(C=C(C=C1)C2=CC3=NC=CN3C(=N2)NC4=C(C=CC=N4)C(=O)N)OC [BAY61-3606] + CS(=O)(=O)N1CCN(Cc2cc3nc(-c4cccc5[nH]ncc45)nc(N4CCOCC4)c3s2)CC1 [Pictilisib] (partner 1 µM)
How it was run: as §1

BAY61-3606 + Luminespib = compound: COC1=C(C=C(C=C1)C2=CC3=NC=CN3C(=N2)NC4=C(C=CC=N4)C(=O)N)OC [BAY61-3606] + CCNC(=O)c1noc(-c2cc(C(C)C)c(O)cc2O)c1-c1ccc(CN2CCOCC2)cc1 [Luminespib] (partner 0.01 µM)
How it was run: as §1

Cell Line | relative viability (Doxorubicin + OSI-027; first compound 0.003162 µM) | relative viability (Doxorubicin + OSI-027; first compound 0.01 µM) | relative viability (Doxorubicin + OSI-027; first compound 0.03162 µM) | relative viability (Doxorubicin + OSI-027; first compound 0.1 µM) | relative viability (Doxorubicin + AZD7762; first compound 0.001 µM) | relative viability (Doxorubicin + AZD7762; first compound 0.003162 µM) | relative viability (Doxorubicin + AZD7762; first compound 0.01 µM) | relative viability (Doxorubicin + AZD7762; first compound 0.03162 µM) | relative viability (Doxorubicin + AZD7762; first compound 0.1 µM) | relative viability (BAY61-3606 + Pictilisib; first compound 0.02 µM) | relative viability (BAY61-3606 + Pictilisib; first compound 0.06325 µM) | relative viability (BAY61-3606 + Pictilisib; first compound 0.2 µM) | relative viability (BAY61-3606 + Pictilisib; first compound 0.6325 µM) | relative viability (BAY61-3606 + Pictilisib; first compound 2 µM) | relative viability (Doxorubicin + OSI-027; first compound 0.001 µM) | relative viability (BAY61-3606 + Luminespib; first compound 0.02 µM) | relative viability (BAY61-3606 + Luminespib; first compound 0.06325 µM) | relative viability (BAY61-3606 + Luminespib; first compound 0.2 µM) | relative viability (BAY61-3606 + Luminespib; first compound 0.6325 µM) | relative viability (BAY61-3606 + Luminespib; first compound 2 µM)
HCC-366 | 1.01 | 0.934 | 0.85 | 0.423 | 0.278 | 0.234 | 0.233 | 0.117 | 0.0686 | 0.188 | 0.138 | 0.107 | 0.156 | 0.116 |  |  |  |  |  | 
HCC-827 | 0.714 | 0.796 | 0.671 | 0.754 | 0.134 | 0.214 | 0.197 | 0.191 | 0.174 | 1.03 | 0.893 | 1.15 | 1.09 | 0.915 | 0.725 | 0.492 | 0.587 | 0.572 | 0.743 | 0.31
HOP-62 | 0.759 | 0.798 | 0.719 | 0.767 | 0.533 | 0.54 | 0.519 | 0.527 | 0.397 | 0.68 |  | 0.582 | 0.783 | 0.53 | 0.832 | 0.919 | 1.07 | 0.83 | 0.933 | 0.651
IA-LM |  |  |  |  |  |  |  |  |  | 0.351 | 0.393 | 0.442 | 0.54 | 0.496 |  |  |  |  |  | 
LC-2-ad | 0.691 | 0.587 | 0.386 | 0.292 | 0.831 | 0.781 | 0.859 | 0.827 | 0.725 | 0.405 | 0.429 | 0.29 | 0.468 | 0.235 | 0.629 | 1.2 | 0.98 | 1.1 | 0.963 | 0.646
NCI-H520 | 0.274 | 0.233 | 0.193 | 0.202 |  |  |  |  |  | 0.316 | 0.32 | 0.329 | 0.261 | 0.317 | 0.249 | 0.216 | 0.237 | 0.258 | 0.231 | 0.223
NCI-H522 | 0.72 | 0.792 | 0.756 | 0.709 | 0.7 | 0.745 | 0.967 | 0.656 | 0.918 |  |  |  |  |  | 0.568 | 1.05 | 1.13 | 1.16 | 1.12 | 0.89
NCI-H661 | 0.639 | 0.625 | 0.46 | 0.291 |  |  |  |  |  | 0.422 | 0.415 | 0.376 | 0.383 | 0.408 | 0.829 | 0.902 | 0.917 | 0.867 | 0.879 | 0.823
NCI-H1299 |  |  |  |  |  |  |  |  |  | 0.822 | 0.854 | 0.844 | 0.918 | 0.503 |  |  |  |  |  | 
NCI-H1563 | 0.788 | 0.684 | 0.589 | 0.5 |  |  |  |  |  | 0.621 | 0.579 | 0.731 | 0.654 | 0.653 | 0.813 | 0.528 | 0.558 | 0.531 | 0.54 | 0.502
NCI-H1623 | 0.41 | 0.462 | 0.434 | 0.423 |  |  |  |  |  |  |  |  |  |  | 0.388 | 0.604 | 0.439 | 0.422 | 0.607 | 0.52
NCI-H1648 | 0.276 | 0.261 | 0.259 | 0.266 | 0.762 | 0.524 | 0.741 | 0.843 | 0.654 |  |  |  |  |  | 0.291 |  |  |  |  | 
NCI-H1650 | 0.567 | 0.394 | 0.153 | 0.144 |  |  |  |  |  | 0.728 | 0.493 | 0.68 | 0.564 | 0.402 | 0.496 | 0.182 | 0.184 | 0.191 | 0.203 | 0.208
NCI-H1703 |  |  |  |  | 0.131 | 0.146 | 0.146 | 0.119 | 0.114 | 0.27 | 0.233 | 0.241 | 0.256 | 0.214 |  |  |  |  |  | 
NCI-H2009 | 0.687 | 0.568 | 0.632 | 0.402 |  |  |  |  |  | 0.897 | 0.849 | 0.851 | 0.751 | 0.52 | 0.634 | 1.08 | 1.04 | 0.976 | 0.992 | 0.902
NCI-H2023 | 0.363 | 0.314 | 0.142 | 0.0903 |  |  |  |  |  | 0.275 | 0.264 | 0.277 | 0.251 | 0.206 | 0.347 | 0.885 | 0.614 | 0.669 | 0.778 | 0.535
NCI-H2228 | 0.62 | 0.414 | 0.274 | 0.209 |  |  |  |  |  | 0.432 | 0.34 | 0.421 | 0.505 | 0.341 | 0.35 | 0.13 | 0.175 | 0.125 | 0.199 | 0.177
NCI-H2342 | 0.563 | 0.597 | 0.59 | 0.609 | 0.522 | 0.491 | 0.485 | 0.426 | 0.496 |  |  |  |  |  | 0.628 | 0.895 | 0.719 | 0.711 | 0.751 | 0.797
SK-LU-1 | 0.297 | 0.28 | 0.224 | 0.173 |  |  |  |  |  | 0.628 | 0.498 | 0.662 | 0.515 | 0.428 | 0.359 | 0.182 | 0.224 | 0.188 | 0.2 | 0.173
SK-MES-1 | 0.719 | 0.516 | 0.174 | 0.129 |  |  |  |  |  | 0.393 | 0.337 | 0.333 | 0.354 | 0.315 | 0.637 | 0.862 | 0.759 | 0.791 | 0.805 | 0.304
SW 900 | 0.708 | 0.571 | 0.401 | 0.226 |  | 0.647 | 0.604 | 0.45 | 0.358 |  |  |  |  |  | 0.373 | 0.172 | 0.188 | 0.179 | 0.219 | 0.162
SW 1573 | 0.513 | 0.316 | 0.125 | 0.103 |  |  |  |  |  | 0.476 | 0.44 | 0.464 | 0.514 | 0.367 | 0.527 | 0.192 | 0.204 | 0.197 | 0.214 | 0.204
